Source: US12268683B2, “Compounds and methods for synergistic activation of M channels” (THE REGENTS OF THE UNIVERSITY OF CALIFORNIA, priority 2018, dated 2025)

How the values were obtained:
[1] = molecular target: KCNA1 (Homo sapiens, UniProt Q09470); assay: TEVC of KCNA1 expressed in Xenopus oocytes; format: cell-based
From the text: cRNA transcripts encoding human KCNA1, KCNQ1, KCNQ2, KCNQ3, KCNQ4, or KCNQ5 were generated by in vitro transcription using the T7 polymerase message machine kit (Thermo Fisher Scientific), after vector linearization, from cDNA sub-cloned into plasmids incorporating X. laevis β-globin 5′ and 3′ UTRs flanking the coding region to enhance translation and cRNA stability. cRNA was quantified by spectrophotometry. Mutant cDNAs were generated by site-directed mutagenesis using a QuikChange kit according to manufacturer's protocol (Stratagene, San Diego, Calif.) and corresponding cRNAs prepared as above. Defolliculated stage V and VI X. laevis oocytes (Ecocyte Bioscience, Austin, Tex.) were injected with Kv channel a subunit cRNAs (10 ng total per oocyte). […]
TEVC recording was performed at room temperature with an OC-725C amplifier (Warner Instruments, Hamden, Conn.) and pClamp10.2 software (Molecular Devices, Sunnyvale, Calif.) 3-5 days after cRNA injection as described in the section above. […] Currents were recorded in response to pulses between −80 and +40 mV at 20 mV intervals, or a single pulse to +40 mV, from a holding potential of −80 mV, to yield current-voltage relationships, current magnitude, and for quantifying activation rate. […]

[2] = test system: pentylene tetrazole-induced seizures; assay: PTZ chemoconvulsant assay; format: in vivo, mouse; conditions: for clonic seizure incidence: alone
From the text: We compared anticonvulsant activities of test compounds in male C57BL/6 mice (Charles River) aged 2-3 months. Mice were housed and used according to the recommendations in the Guide for the Care and Use of Laboratory Animals of the National Institutes of Health (NIH Publication, 8th edition, 2011). The study protocol was approved by the Institutional Animal Care and Use Committee of University of California, Irvine, which confirmed that all relevant ethical regulations were adhered to. Chemicals were sourced from Sigma (St. Louis, Mo., USA). A pentylene tetrazole (PTZ) chemoconvulsant assay was used-. […] Following the PTZ injection, mice were caged individually and an observer (GWA) blinded to the drug used recorded, over 20 min, clonic and tonic seizure incidence, and seizure-related mortality.
We quantified the anticonvulsant activities of (E)-2-dodecenal and tridecanal in male C57BL/6 mice (Charles River, Wilmington, Mass.) aged 2-3 months. The mice were housed and used according to the recommendations in the Guide for the Care and Use of Laboratory Animals of the National Institutes of Health (NIH Publication, 8th edition, 2011). The study protocol was approved by the Institutional Animal Care and Use Committee of University of California, Irvine. The chemicals were sourced from Sigma (St. Louis, Mo., USA). We used a pentylene tetrazole (PTZ) chemoconvulsant assay as we previously described (30). We injected the mice intraperitoneally with (E)-2-dodecenal (2 or 20 mgkg^−1) (with or without 2.5 mgkg^−1 XE991) or tridecanal (20 mgkg^−1) solubilized in PBS, or vehicle control (PBS), and then 30 minutes later we injected mice intraperitoneally with 80 mgkg-PTZ. Following the PTZ injection, the mice were caged individually and an observer (GWA) blinded to the experimental condition timed the latency to first seizure.
We compared anticonvulsant activities of 3FMSG in male C57BL/6 mice (Charles River) aged 2-3 months. Mice were housed and used according to the recommendations in the Guide for the Care and Use of Laboratory Animals of the National Institutes of Health (NIH Publication, 8th edition, 2011). The study protocol was approved by the Institutional Animal Care and Use Committee of University of California, Irvine, which confirmed that all relevant ethical regulations were adhered to. Chemicals were sourced from Sigma (St. Louis, Mo., USA). We used a pentylene tetrazole (PTZ) chemoconvulsant assay as we previously described^27. Mice were injected intraperitoneally with 3FMSG (5 mg kg^−1) or vehicle control (PBS) and then 30 minutes later injected intraperitoneally with 80 mg kg^−1 PTZ. Following the PTZ injection, mice were caged individually and an observer (GWA) blinded to the drug used recorded seizure activity over 20 minutes.

[3] = humans; cited from earlier work

Sequence of KCNA1 (Q09470 whole entry): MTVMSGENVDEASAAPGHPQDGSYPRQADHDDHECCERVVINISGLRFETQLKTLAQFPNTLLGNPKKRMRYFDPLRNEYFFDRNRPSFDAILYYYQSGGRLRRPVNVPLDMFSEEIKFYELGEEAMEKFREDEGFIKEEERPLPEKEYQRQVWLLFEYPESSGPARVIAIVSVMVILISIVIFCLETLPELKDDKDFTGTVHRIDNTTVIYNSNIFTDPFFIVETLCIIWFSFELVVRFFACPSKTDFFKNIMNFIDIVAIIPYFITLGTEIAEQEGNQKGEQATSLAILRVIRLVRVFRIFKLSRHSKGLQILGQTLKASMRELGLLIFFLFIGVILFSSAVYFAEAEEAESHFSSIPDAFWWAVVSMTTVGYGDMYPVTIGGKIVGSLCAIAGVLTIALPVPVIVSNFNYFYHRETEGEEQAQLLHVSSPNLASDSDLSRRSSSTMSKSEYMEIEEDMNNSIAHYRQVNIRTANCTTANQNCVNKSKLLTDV

SMILES | effect on KCNA1 (in words) [1] | clonic seizure incidence ([2]; 10 mg/kg i.p.) | clonic seizure incidence ([2]; 20 mg/kg i.p.) | suppression of PTZ-induced tonic seizures ([2]; individually) | mean Tmax [3] [min] | well tolerated dose [3]
CC(C)CC(=O)O [IVA, isovaleric acid] | did not alter currents | neither compound reduced clonic seizures alone | no effect | ineffective | – | –
CC(C)CC(N)=O [Isovaleramide, isovaleramide] | – | – | – | – | 30 to 45 | at least 2400 mg per day
